Where no end group is shown, it is not given here.
System: Human macrophages
Test: H₂O₂ production by IFN-γ activated macrophages (scopoletin fluorometric assay)
Format: cell-based
Details: 3 hrs preincubation, up to 1000 ng/ml (2.5 X 10⁻⁷M); IFN-γ 200 units/ml; 3 days

With “Calcitonin: neuropeptide derived from the same gene as CGRP, available commercially (CGNLSTCMLGTYTQDFNKFHTFPQTAIGVGAP; ends and bridges not checked; cysteine pairing not given here; UniProt P01258 85-116, looked up)” the “inhibition of H₂O₂ production by macrophages” value was “inhibit H₂O₂ production by macrophages to a degree similar to that seen with CGRP”.

Source: patent publication EP0479899B1, “VASODILATORY AND IMMUNE SUPPRESSANT PEPTIDES” (THE PRESIDENT AND FELLOWS OF HARVARD COLLEGE, priority 1989, dated 1991)
